The assay deals with T1, DVL1 binding to FZD4 (Homo sapiens, UniProt O14640).
T1 construct: host or cells: HEK293
T1 sequence (O14640 1-695): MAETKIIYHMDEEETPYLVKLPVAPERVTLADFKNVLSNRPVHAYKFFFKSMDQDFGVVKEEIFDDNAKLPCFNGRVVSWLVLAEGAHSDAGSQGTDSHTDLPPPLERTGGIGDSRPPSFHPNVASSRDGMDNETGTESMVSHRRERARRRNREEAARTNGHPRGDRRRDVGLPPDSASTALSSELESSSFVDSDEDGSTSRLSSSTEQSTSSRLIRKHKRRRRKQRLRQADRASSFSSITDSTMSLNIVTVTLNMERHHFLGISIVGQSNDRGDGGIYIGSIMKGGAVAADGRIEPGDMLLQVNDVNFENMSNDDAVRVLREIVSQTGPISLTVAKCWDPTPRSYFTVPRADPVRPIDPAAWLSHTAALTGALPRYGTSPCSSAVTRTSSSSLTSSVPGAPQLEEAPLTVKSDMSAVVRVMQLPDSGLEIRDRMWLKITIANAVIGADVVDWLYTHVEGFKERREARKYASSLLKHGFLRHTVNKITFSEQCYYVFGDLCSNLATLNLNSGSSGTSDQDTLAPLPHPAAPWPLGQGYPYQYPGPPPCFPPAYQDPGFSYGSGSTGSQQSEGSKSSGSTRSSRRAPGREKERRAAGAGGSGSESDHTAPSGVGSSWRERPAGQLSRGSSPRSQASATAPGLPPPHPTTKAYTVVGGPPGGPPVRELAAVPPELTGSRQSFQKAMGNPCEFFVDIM
The assay can be described thus: Inhibition of DVL1 (DVL-GFP) recruitment by FZD4 at the plasma membrane of HEK293 cells. The assay is classed as cell-based. Particulars: HEK293 cells co-transfected with HA-FZD4 and GFP-DVL-1; 24 h treatment; read-out: EC50 ± SD DVL1 Binding Inhibition. The method, then: HEK293 cells were seeded in 96-well tissue culture plates at a density of 5 × 10 ^3/well. After 16–24 h seeding, cells were co-transfected with HA-FZD4-wt (0.04 µg/well) and GFP-tagged DVL-1 (0.04 µg/well) using PEI (0.25 µL/well) in a final volume of 100 µL/well. After 24 h of transfection, the medium was replaced and supplemented with the indicated compounds diluted in culture medium. After 24 h of treatment, cells were fixed in 3.7% formaldehyde freshly diluted in PBS for 30 min at RT, quenched with 0.1 M glycine/PBS for 30 min at RT, and washed with PBS. Samples were observed under a Leica confocal fluorescent microscope. Inhibition of DVL recruitment was measured by counting the percentage of cells losing GFP-DVL-1 localization on the PM. Experiments were performed in triplicate, and the standard deviations are indicated.
The crucial role played by PDZ domains in the spreading of cellular signals and their aberrant activations in many human diseases makes the PDZ domains very attractive targets for drug discovery. […] To identify new DVL1 inhibitors, we followed a virtual screening approach by fixing as the main filter a pharmacophoric model. We speculated that compound 2, the recently reported inhibitor of NHERF1 PDZ1 domain [26], may be able also to bind the DVL PDZ domain. The activity of compound 2 was assayed in HEK293 cells transiently expressing both HA-tagged-FZD4 (HA-FZD4) and the chimeric construct DVL-GFP. In the absence of HA-FZD4, DVL-GFP is localized in punctate intracellular structures known as signalosomes. In the presence of FZD-4 expression, DVL-GFP is recruited on the PM of the cell showing a drastic change in localization. As previously reported, drugs acting as inhibitors of FZD4/DVL binding reduce the amount of DVL-GFP recruited on the PM. […] Thus, we used the information gained from the binding mode of compound 2 to design a pharmacophore model that would lead to the identification of new DVL1 PDZ binders. At the same time, to better distinguish between the inhibitory activities of DVL1 and NHERF1, we added a new query to the pharmacophore model. Actually, comparing the PDZ structures of the studied proteins, we identified a significant difference. The upper part of the carboxylic binding loop was delimited by Tyr24, Ile79 and Val86 for NHERF1, while we observed Leu12, Val75 and Ile81, respectively, for DVL1. […] This peculiar feature of the DVL1 PDZ was included in our pharmacophore model by adding a hydrophobic query to obtain the required selectivity (Figure S1, Supplementary Materials). […] Thus, for each molecule, we obtained 10 conformations, and all of the proposed binding poses (7000 molecules per 10 conformations) were scored by the fitting to the pharmacophore model. […]
Turning to `Cc1cc(C)cc(S(=O)(=O)c2c(C(=O)N[C@@H](C)C(=O)NCc3ccncc3)[nH]c3ccc(Cl)cc23)c1` [(S)-1, (S)-5-Chloro-3-((3,5-dimethylphenyl)sulfonyl)-N-(1-oxo-1-((pyridin-4-ylmethyl)amino)propan-2-yl)-1H-indole-2-carboxamide], the EC50 (as a rule, the midpoint of the concentration-response curve) is 490 ± 110 nM.

Consider `Cc1cc(C)cc(S(=O)(=O)c2c(C(=O)NC(C)C(=O)NCc3ccncc3)[nH]c3ccc(Cl)cc23)c1` (stereo not drawn) [Compound 1], for which the EC50 was 740 ± 80 nM.

Regarding `Cc1cc(C)cc(S(=O)(=O)c2c(C(=O)N[C@H](C)C(=O)NCc3ccncc3)[nH]c3ccc(Cl)cc23)c1` [(R)-1], the EC50 came to 29500 ± 900 nM.

The record behind these values is publication PMC8909805, “Anticancer Activity of (S)-5-Chloro-3-((3,5-dimethylphenyl)sulfonyl)-N-(1-oxo-1-((pyridin-4-ylmethyl)amino)propan-2-yl)-1H-indole-2-carboxamide (RS4690), a New Dishevelled 1 Inhibitor” (Cancers, 2022).
